These molecules were tested against T1, P2X7 receptor (Homo sapiens, UniProt Q99572) (assay: P2X7 calcium mobilization assay, high throughput, antagonist activity (Example 4A)). Conditions: not given.
T1 construct: host or cells: SH-SY5Y
T1 sequence (Q99572 1-595): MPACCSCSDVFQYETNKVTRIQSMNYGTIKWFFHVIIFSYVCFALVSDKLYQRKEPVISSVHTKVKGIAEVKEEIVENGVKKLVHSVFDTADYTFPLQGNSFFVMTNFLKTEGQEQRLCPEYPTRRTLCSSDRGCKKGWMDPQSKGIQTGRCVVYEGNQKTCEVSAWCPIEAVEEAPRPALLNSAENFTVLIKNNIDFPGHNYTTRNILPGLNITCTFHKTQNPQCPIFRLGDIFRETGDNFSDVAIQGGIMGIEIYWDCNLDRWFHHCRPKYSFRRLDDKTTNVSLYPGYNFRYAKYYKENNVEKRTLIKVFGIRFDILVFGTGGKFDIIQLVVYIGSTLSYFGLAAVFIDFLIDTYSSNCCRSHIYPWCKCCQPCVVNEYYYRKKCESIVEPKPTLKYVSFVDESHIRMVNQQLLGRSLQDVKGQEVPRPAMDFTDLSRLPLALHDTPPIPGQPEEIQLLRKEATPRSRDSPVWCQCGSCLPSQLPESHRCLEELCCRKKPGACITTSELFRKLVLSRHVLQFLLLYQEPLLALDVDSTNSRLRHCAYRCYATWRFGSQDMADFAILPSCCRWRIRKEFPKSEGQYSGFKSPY
Format: cell-based
Procedure, shortened: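 100,000 cells/well, plated day -1. Dye 1 h → rinse → compound 1 h, RT → FLIPR^TETRA Ca2+ mobilization. Max RFU minus mean negative control (no agonist); mean agonist-well max as positive control.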
In the case of `C[C@@H](CO)NCc1cn2c(C(=O)NCC34CC5CC(CC(C5)C3)C4)cccc2n1` [Compound 66, N-(adamantan-1-ylmethyl)-2-({[(1S)-2-hydroxy-1-methylethyl]amino}methyl)imi-dazo[1,2-a]pyridine-5-carboxamide], the IC50 is reported as < 2 µM. `CCOC(=O)Cc1cn2c(C(=O)NCC34CC5CC(CC(C5)C3)C4)cccc2n1` [Compound 4, ethyl {5-[(adamantan-1-ylmethyl)carbamoyl]imi-dazo[1,2-a]pyridin-2-yl}acetate] was tested, and the IC50 was < 2 µM. For `O=C(NCC12CC3CC(CC(C3)C1)C2)c1cccc2nc(CNCCN3CCCC3)cn12` [Compound 126, N-(adamantan-1-ylmethyl)-2-{[(2-pyrrolidin-1-ylethyl)amino]methyl}imi-dazo[1,2-a]pyridine-5-carboxamide], the IC50 was < 2 µM. `CC(C)CC(CNC(=O)c1cccc2nc(CC(=O)N3CCC4(CC3)OCCO4)cn12)c1ccccc1` (stereo not drawn) [Compound 247, 2-[2-(1,4-dioxa-8-azaspiro[4.5]dec-8-yl)-2-oxoethyl]-N-(4-methyl-2-phenylpentyl)imidazo [1,2-a]pyridine-5-carboxamide] was tested, and the IC50 was < 2 µM.

Same assay, conditions: 50% decrease in the fluorescence response of cells exposed to 80 μM 2′(3′)-O-(4-benzoyl-benzoyl)adenosine 5′-triphosphate; Example 4A; read-out: IC50
`COCCN(C(=O)c1cn2c(C(=O)NC[C@@H]3CC[C@H]4C[C@@H]3C4(C)C)cccc2n1)C(C)C` [Compound 483, 5-N-{[(1S,2R,5S)-6,6-dimethylbicyclo[3.1.1]hept-2-yl]methyl}-2-N-isopropyl-2-N-(2-methoxyethyl)imidazo [1,2-a]pyridine-2,5-dicarboxamide] was tested, and the IC50 was < 2 µM. With `O=C(NCC12CC3CC(CC(C3)C1)C2)c1cccc2nc(CC(=O)N3CC[C@@H](O)C3)cn12` [Compound 531, N-(adamantan-1-ylmethyl)-2-{2-[(3R)-3-hydroxypyrrolidin-1-yl]-2-oxoethyl}imidazo[1,2-a]pyridine-5-carboxamide] the IC50 was < 2 µM. In the case of `O=C(CC12CC3CC(CC(C3)C1)C2)Nc1cccc2nc(CSc3nnc[nH]3)cn12` [Compound 540, 2-adamantan-1-yl-N-{2-[(4H-1,2,4-triazol-3-ylthio)methyl]imidazo [1,2-a]pyridin-5-yl}acetamide], the IC50 is reported as < 2 µM. `COC1CCN(C(=O)c2cn3c(C(=O)NC[C@@H]4CC[C@H]5C[C@@H]4C5(C)C)cccc3n2)CC1` [Compound 493, N-{[(1S,2R,5S)-6,6-dimethylbicyclo [3.1.1]hept-2-yl]methyl}-2-[(4-methoxy-piperidin-1-yl)carbonyl] imidazo[1,2-a] pyridine-5-carboxamide] was tested, and the IC50 was < 2 µM.

Same assay, conditions: 50% decrease in the fluorescence response of cells exposed to 80 μM of 2′(3′)-O-(4-benzoyl-benzoyl)adenosine 5′-triphosphate; Example 4A; read-out: IC50
For `CN(C)CCCNC(=O)c1cn2c(C(=O)NCC34CC5CC(CC(C5)C3)C4)cccc2n1` [Compound 647, 5-N-(adamantan-1-ylmethyl)-2-N-[3-(dimethylamino)propyl]imidazo [1,2-a]pyridine-2,5-dicarboxamide], the IC50 was < 2 µM. `N[C@H]1CCN(C(=O)c2cn3c(C(=O)NCC45CC6CC(CC(C6)C4)C5)cccc3n2)C1` [Compound 629, N-(adamantan-1-ylmethyl)-2-{[(3S)-3-aminopyrrolidin-1-yl]carbonyl}imidazo[1,2-a]pyridine-5-carboxamide] was tested, and the IC50 was < 2 µM. In the case of `CC(C)CC(CNC(=O)c1cccc2nc(CC(=O)N3CCCC(N(C)C)C3)cn12)c1ccc(Cl)cc1` (stereo not drawn) [Compound 792, N-[2-(4-chlorophenyl)-4-methylpentyl]-2-{2-[3-(dimethylamino)piperidin-1-yl]-2-oxoethyl} imidazo[1,2-a] pyridine-5-carboxamide], the IC50 is reported as < 2 µM. In the case of `CN(C)[C@@H]1CCN(C(=O)Cc2cn3c(C(=O)NCC45CC6CC(CC(C6)C4)C5)cccc3n2)C1` [Compound 691, N-(adamantan-1-ylmethyl)-2-{2-[(3R)-3-(dimethylamino)pyrrolidin-1-yl]-2-oxoethyl}imidazo[1,2-a]pyridine-5-carboxamide], the IC50 is reported as < 2 µM. `CCOC(=O)CCc1cn2c(C(=O)NCC34CC5CC(CC(C5)C3)C4)cccc2n1` [Compound 756, ethyl 3-{5-[(adamantan-1-ylmethyl)carbamoyl]imidazo[1,2-a]pyridin-2-yl}propanoate] was tested, and the IC50 was < 2 µM. In the case of `CCN(CC)CCCNC(=O)c1cn2c(C(=O)NCC34CC5CC(CC(C5)C3)C4)cccc2n1` [Compound 658, 5-N-(adamantan-1-ylmethyl)-2-N-[3-(diethylamino)propyl] imidazo[1,2-a] pyridine-2,5-dicarboxamide], the IC50 is reported as < 2 µM.

Same assay, conditions: 50% decrease in the fluorescence response of cells exposed to 80 μM of 2′(3′)-O-(4-benzoyl-benzoyl)adenosine 5′-triphosphate; determined as in Example 4A; read-out: IC50
With `O=C(Cc1cn2c(C(=O)NCC3(c4ccc(Cl)cc4)CCOCC3)cccc2n1)N[C@@H]1CCCNC1` [Compound 926, N-{[4-(4-chlorophenyl)tetrahydro-2H-pyran-4-yl]methyl}-2-{2-oxo-2-[(3R)-piperidin-3-ylamino]ethyl}imidazo [1,2-a]pyridine-5-carboxamide] the IC50 was < 2 µM. With `O=C(NCC1(c2ccc(Cl)cc2)CCCCC1)c1cccc2nc(CC(=O)N3CCSCC3)cn12` [Compound 891, N-{[1-(4-chlorophenyl)cyclohexyl]methyl}-2-(2-oxo-2-thiomorpholin-4-ylethyl)imidazo [1,2-a]pyridine-5-carboxamide] the IC50 was < 2 µM. For `COc1ccc(C2(CNC(=O)c3cccc4nc(CCC(=O)O)cn34)CCCCC2)cc1` [Compound 998, 3-[5-({[1-(4-methoxyphenyl)cyclohexyl]methyl}carbamoyl)imidazo[1,2-a]pyridin-2-yl]propanoic acid], the IC50 was < 2 µM. In the case of `CN(C)C1CCCN(C(=O)Cc2cn3c(C(=O)NCC4(c5ccc(Cl)cc5)CCOCC4)cccc3n2)C1` (stereo not drawn) [Compound 899, N-{[4-(4-chlorophenyl)tetrahydro-2H-pyran-4-yl]methyl}-2-{2-[3-(dimethylamino)piperidin-1-yl]-2-oxoethyl} imidazo[1,2-a] pyridine-5-carboxamide], the IC50 is reported as < 2 µM. For `O=C(Cc1cn2c(C(=O)NCC3(c4cccnc4)CCCCC3)cccc2n1)NCC(F)(F)F` [Compound 874, 2-{2-oxo-2-[(2,2,2-trifluoroethyl)amino]ethyl}-N-[(1-pyridin-3-ylcyclohexyl)methyl] imidazo[1,2-a] pyridine-5-carboxamide], the IC50 was < 2 µM.

Same assay, conditions: P2X7 calcium mobilization, Example 4A; 50% decrease in the fluorescence response of cells exposed to 80 μM of (2′(3′)-O-(4-benzoyl-benzoyl)adenosine 5′-triphosephate); read-out: IC50
With `CN1CCCC(NC(=O)Cc2cn3c(C(=O)NCC45CC6CC(CC(C6)C4)C5)cccc3n2)C1` (stereo not drawn) [Compound 1050, N-(adamantan-1-ylmethyl)-2-{2-[(1-methylpiperidin-3-yl)amino]-2-oxoethyl} imidazo[1,2-a]pyridine-5-carboxamide] the IC50 was < 2 µM. For `O=C(NCC(c1ccc(Cl)cc1)N1CCOCC1)c1cccc2ncc(Cl)n12` (stereo not drawn) [Compound 1055, 3-chloro-N-[2-(4-chlorophenyl)-2-morpholin-4-ylethyl]imidazo[1,2-a]pyridine-5-carboxamide], the IC50 was < 2 µM.

Same assay, conditions: SH-SY5Y cells; 50% decrease in fluorescence response to 80 μM BzATP; read-out: IC50
`CC(C)CNC(=O)Cc1cn2c(C(=O)NCC34CC5CC(CC(C5)C3)C4)cccc2n1` [Compound 18, N-(adamantan-1-ylmethyl)-2-[2 (isobutylamino)-2-oxoethyl]imidazo[1,2-a]pyridine-5-carboxamide] was tested, and the IC50 was < 2 µM.

Same assay, conditions: fluorescence response of cells exposed to 80 μM 2′(3′)-O-(4-benzoyl-benzoyl)adenosine 5′-triphosphate; Example 4A; read-out: IC50
`CC1(C)C2CC[C@@H](CNC(=O)c3cccc4nc(CN5CC[C@@H](N)C5)cn34)C1C2` (stereo partly drawn) [Compound 249, 2-{[(3R)-3-aminopyrrolidin-1-yl]methyl}-N-{[(2R)-6,6-dimethylbicyclo[3.1.1]hept-2-yl]methyl}imidazo[1,2-a]pyridine-5-carboxamide] was tested, and the IC50 was < 2 µM. With `CC(C)CC(CNC(=O)c1cccc2nc(CC(=O)N3CCCCC3)cn12)c1ccccc1` (stereo not drawn) [Compound 243, N-(4-methyl-2-phenylpentyl)-2-(2-oxo-2-piperidin-1-ylethyl)imidazo[1,2-a]pyridine-5-carboxamide] the IC50 was < 2 µM. With `C/C(CCc1cn2c(C(=O)NCC34CC5CC(CC(C5)C3)C4)cccc2n1)=N\O` [Compound 354, N-(adamantan-1-ylmethyl)-2-[(3E)-3-(hydroxyimino)butyl] imidazo[1,2-a]pyridine-5-carboxamide] the IC50 was < 2 µM. In the case of `O=C(NCC12CC3CC(CC(C3)C1)C2)c1cccc2nc(CN3CCSCC3)cn12` [Compound 352, N-(adamantan-1-ylmethyl)-2-(thiomorpholin-4-ylmethyl)imidazo[1,2-a]pyridine-5-carboxamide], the IC50 is reported as < 2 µM. In the case of `CC1(C)[C@H]2CC[C@@H](CNC(=O)c3cccc4nc(C(=O)N5CCC(N)C5)cn34)[C@@H]1C2` (stereo partly drawn) [Compound 315, 2-[(3-aminopyrrolidin-1-yl)carbonyl]-N-{[(1S,2R,5S)-6,6-dimethylbicyclo[3.1.1]hept-2-yl]methyl}imidazo[1,2-a]pyridine-5-carboxamide], the IC50 is reported as < 2 µM.

Source: patent publication US8431593B2, “Heteroaryl amide derivatives” (H. Lundbeck A/S, priority 2006, dated 2013)
